# In US20180230127A1 (PFIZER INC., priority 2015, published 2018):
# pIC50: −log10 of the molar value. Counter-ions that a name gives are not always drawn.
# Target: T1, human IRAK4 kinase domain (aa 154-460) (Homo sapiens, UniProt Q9NWZ3)
# T1 construct: human IRAK4 kinase domain (aa 154-460; GenBank ID AF445802)
# T1 sequence (Q9NWZ3 154-460): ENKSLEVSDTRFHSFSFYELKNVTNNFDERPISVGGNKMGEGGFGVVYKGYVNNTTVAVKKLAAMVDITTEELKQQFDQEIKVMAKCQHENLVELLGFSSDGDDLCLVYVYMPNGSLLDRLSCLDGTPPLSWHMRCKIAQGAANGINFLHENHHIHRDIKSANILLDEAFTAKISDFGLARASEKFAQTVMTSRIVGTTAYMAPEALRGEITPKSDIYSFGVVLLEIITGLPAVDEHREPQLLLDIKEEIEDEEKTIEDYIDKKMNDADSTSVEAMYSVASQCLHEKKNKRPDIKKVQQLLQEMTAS
# Experiment: IRAK4 Enzymatic DELFIA Assay
# Assay type: biochemical
# Conditions: 0.6 mM ATP (KM); 114 pM IRAK4 kinase domain; 200 nM substrate; 5% DMSO
# Protocol: IRAK4 Enzymatic DELFIA Assay.
# This is an in vitro assay to measure IRAK4 enzymatic activity utilizing the DELFIA (Dissociation-Enhanced Lanthanide Fluorescent Immunoassay, Perkin-Elmer) platform, with the human IRAK4 kinase domain (aa 154-460) construct to characterize IRAK4 inhibitor and control compounds at 0.6 mM ATP (KM). The final amount of enzyme in the assay is 114 pM IRAK4 kinase domain, final concentration of substrate is 200 nM, and final concentration of DMSO is 5%.
# The test compound was solubilized in DMSO to a stock concentration of 30 mM. The dose response plates were prepared with a 2 mM primary compound concentration, and then diluted in DMSO in a four-fold series for a total of 10 data points. Compounds were prepared as a 20-fold multiple of the final in-assay concentration
# To begin the assay, 45 μL of reaction mixture containing 20 mM HEPES pH=7.5, 5 mM MgCl2, 0.0025% Brij-35, […], 228 pM phosphorylated recombinant human IRAK4 kinase domain (aa 154-460; GenBank ID AF445802) were aliquoted into Ultra-Clear Polypropylene, 96-well, U-Bottom Plates (Corning Life Sciences). 5 μL of test compound from the dose-response plate was added to the reaction mixture and incubated for 15 minutes at room temperature. Then 50 μL of 20 mM HEPES pH=7.5, 5 mM MgCl2, 0.0025% Brij-35, 600 μM ATP, and 400 nM ERM-biotinylated peptide (AGAGRDKYKTLRQIR) were added to start the reaction. The reaction was incubated for 90 minutes at room temperature and stopped by the addition of 25 μL 0.5M EDTA.
# 100 μL of the reaction mixture was transferred to a streptavidin coated detection plate (EvenCoat Streptavidin Coated Plates, 96-Well, R&D Systems) and incubated for 30 minutes at room temperature. The plates were washed 4 times with 100 μL per well of PBS containing 0.05% Tween-20. Plates were then incubated with 50 μL per well of antibody cocktail of Anti-pERM antibody (Cell Signaling Technology) diluted 1:5000, plus Anti-Rabbit IgG EuN1 at 0.242 μg/ml (Perkin-Elmer Life Sciences) in a solution of 10 mM MOPS pH=7.5, 150 mM NaCl, 0.05% Tween-20, 0.02% NaN3, 1% BSA, 0.1% Gelatin for 45 minutes. The plates were washed 4× with 100 μL per well of PBS containing 0.05% Tween-20. Then 100 μL per well of DELFIA Enhancement Solution were added to the plate and then read on an EnVision Model 2103 using a 340 nm excitation wavelength and a 665 nm emission detection.
row,Compound,pIC50
1,"Cc1cc(O[C@@H]2CCCN(C(=O)CC#N)C2)c2cc(OC(C)C)c(C(N)=O)cc2n1 [Example 29, (R)-4-((1-(2-cyanoacetyl)piperidin-3-yl)oxy)-6-isopropoxy-2-methylquinoline-7-carboxamide]",6.83
2,"COc1cc2c(O[C@@H]3CCCN(C(=O)CC#N)C3)ccnc2cc1C(N)=O [Example 30, (R)-4-((1-(2-cyanoacetyl)piperidin-3-yl)oxy)-6-methoxyquinoline-7-carboxamide]",7.55
3,"N#CCC(=O)N1CCC[C@@H](Oc2ccnc3cc(C(N)=O)c(OC(F)F)cc23)C1 [Example 31, 4-{[(3R)-1-(cyanoacetyl)piperidin-3-yl]oxy}-6-(difluoromethoxy) quinoline-7-carboxamide]",7.00
4,"CCOc1cc2c(O[C@@H]3CCCN(C(=O)CC#N)C3)ccnc2cc1C(N)=O [Example 32, 4-{[(3R)-1-(cyanoacetyl)piperidin-3-yl]oxy}-6-ethoxyquinoline-7-carboxamide]",7.46
5,"N#CCC(=O)N1CCC[C@@H](Oc2ccnc3cc(C(N)=O)c(OC4CCC4)cc23)C1 [Example 33, (R)-4-((1-(2-cyanoacetyl)piperidin-3-yl)oxy)-6-cyclobutoxyquinoline-7-carboxamide]",6.57
6,CC(C)Oc1cc2c(O[C@@H]3CCCN(C(=O)CCC#N)C3)ccnc2cc1C(N)=O [Example 35],6.58
7,"CC(C)Oc1cc2c(O[C@@H]3CCCN(C(=O)CC#N)C3)nccc2cc1C(N)=O [Example 36, 1-{[(3R)-1-(cyanoacetyl)piperidin-3-yl]oxy}-7-(propan-2-yloxy)isoquinoline-6-carboxamide]",8.30
8,"CC(C)Oc1cc2c(O[C@@H]3CCCN(C(=O)CC#N)C3)ncc(Cl)c2cc1C(N)=O [Example 37, 4-chloro-1-{[(3R)-1-(cyanoacetyl)piperidin-3-yl]oxy}-7-(propan-2-yloxy)isoquinoline-6-carboxamide]",7.40
9,"CC(C)Oc1cc2c(O[C@@H]3CCCN(C(=O)CC#N)C3)ncc(C#N)c2cc1C(N)=O [Example 38, 4-cyano-1-{[(3R)-1-(cyanoacetyl)piperidin-3-yl]oxy}-7-(propan-2-yloxy)isoquinoline-6-carboxamide]",6.79
10,"CC(C)Oc1cc2c(O[C@H]3CCN(C(=O)CC#N)C3)ccnc2cc1C(N)=O [Example 39, 4-{[(3S)-1-(cyanoacetyl)pyrrolidin-3-yl]oxy}-6-(propan-2-yloxy)quinoline-7-carboxamide]",6.81
11,"CC(C)Oc1cc2c(O[C@@H]3CCN(C(=O)CC#N)C3)ccnc2cc1C(N)=O [Example 40, 4-{[(3R)-1-(cyanoacetyl)pyrrolidin-3-yl]oxy}-6-(propan-2-yloxy)quinoline-7-carboxamide]",7.09
12,"CC(O)CN1CCC(Oc2nccc3cc(C(N)=O)c(OC(C)C)cc23)CC1 (stereo not shown) [Example 41, 1-{f[1-(2-hydroxypropyl)piperidin-4-yl]oxy}-7-(propan-2-yloxy)isoquinoline-6-carboxamide]",6.05
13,"Cc1cc(O[C@@H]2CCCN(C(=O)CO)C2)c2cc(OC(C)C)c(C(N)=O)cc2n1 [Example 42, 4-{[(3R)-1-(hydroxyacetyl)piperidin-3-yl]oxy}-2-methyl-6-(propan-2-yloxy)quinoline-7-carboxamide]",6.41
14,"CC(=O)N1CCCC(Oc2ccnc3cc(C(N)=O)c(OC(C)C)cc23)C1 (stereo not shown) [Example 43, 4-[(1-acetylpiperidin-3-yl)oxy]-6-(propan-2-yloxy)quinoline-7-carboxamide]",6.40
15,"CC(C)Oc1cc2c(OC3CCCN(S(C)(=O)=O)C3)ccnc2cc1C(N)=O (stereo not shown) [Example 45, 4-{[1-(methylsulfonyl)piperidin-3-yl]oxy}-6-(propan-2-yloxy)quinoline-7-carboxamide]",6.60
16,"CC(C)Oc1cc2c(O[C@@H]3CCCN(C(=O)[C@@H](N)CC#N)C3)ccnc2cc1C(N)=O [Example 46, 4-({(3R)-1-[(2S)-2-amino-3-cyanopropanoyl]piperidin-3-yl}oxy)-6-(propan-2-yloxy)quinoline-7-carboxamide trifluoroacetate]",7.01

row,Compound,pIC50
1,"CC(C)Oc1cc2c(O[C@@H]3CCCN(C(=O)[C@H](N)CC#N)C3)ccnc2cc1C(N)=O [Example 48, 4-({(3R)-1-[(2R)-2-amino-3-cyanopropanoyl]piperidin-3-yl}oxy)-6-(propan-2-yloxy)quinoline-7-carboxamide trifluoroacetate]",6.52
2,"CC(C)Oc1cc2c(O[C@H]3CN(C(=O)CC#N)CC[C@@H]3C)nccc2cc1C(N)=O [Example 49, 1-{[(3R,4S)-1-(cyanoacetyl)-4-methylpiperidin-3-yl]oxy}-7-(propan-2-yloxy)isoquinoline-6-carboxamide]",7.54
3,"CC(C)Oc1cc2c(OC3CCN(C(=O)CC#N)CC3)nccc2cc1C(N)=O [Example 50, 1-{[1-(cyanoacetyl)piperidin-4-yl]oxy}-7-(propan-2-yloxy)isoquinoline-6-carboxamide]",6.29
4,"CC(C)Oc1cc2c(OC3CCN(C(=O)CO)CC3)nccc2cc1C(N)=O [Example 51, 1-{[1-(hydroxyacetyl)piperidin-4-yl]oxy}-7-(propan-2-yloxy)isoquinoline-6-carboxamide]",6.80
5,"CC(C)Oc1cc2c(O[C@H]3CN(C(=O)CC#N)CC[C@@H]3C)ccnc2cc1C(N)=O [Example 52, 4-{[(3R,4S)-1-(cyanoacetyl)-4-methylpiperidin-3-yl]oxy}-6-(propan-2-yloxy)quinoline-7-carboxamide]",7.19
6,"CC(C)Oc1cc2c(O[C@@H]3CCCNC3)nccc2cc1C(N)=O [Example 53, 1-[(3R)-piperidin-3-yloxy]-7-(propan-2-yloxy)isoquinoline-6-carboxamide hydrochloride]",7.37
7,"CC(C)Oc1cc2c(O[C@@H]3CCCNC3)ncc(Br)c2cc1C(N)=O [Example 54, 4-bromo-1-[(3R)-piperidin-3-yloxy]-7-(propan-2-yloxy)isoquinoline-6-carboxamide hydrochloride]",6.23
8,"CC(C)Oc1cc2c(O[C@@H]3CCCNC3)ncc(Cl)c2cc1C(N)=O [Example 55, 4-chloro-1-[(3R)-piperidin-3-yloxy]-7-(propan-2-yloxy)isoquinoline-6-carboxamide hydrochloride]",6.66
9,"Cc1cnc(O[C@@H]2CCCNC2)c2cc(OC(C)C)c(C(N)=O)cc12 [Example 56, 4-methyl-1-[(3R)-piperidin-3-yloxy]-7-(propan-2-yloxy)isoquinoline-6-carboxamide hydrochloride]",6.54
10,"CC(C)Oc1cc2c(OC3CCCNC3)cccc2cc1C(N)=O (stereo not shown) [Example 57, 3-isopropoxy-5-(piperidin-3-yloxy)-2-naphthamide hydrochloride]",7.40
11,"CC(C)Oc1cc2c(O[C@@H]3CCCNC3)ccnc2cc1C(N)=O [Example 58, (R)-4-(piperidin-3-yloxy)-6-(propan-2-yloxy)quinoline-7-carboxamide hydrochloride]",6.87
12,"CC(C)Oc1cc2c(O[C@@H]3CC[C@H](C)NC3)ccnc2cc1C(N)=O [Example 59, 4-{[(3R,6S)-6-methylpiperidin-3-yl]oxy}-6-(propan-2-yloxy)quinoline-7-carboxamide]",6.04
13,"CC(C)Oc1cc2c(OC3CCNCC3)nccc2cc1C(N)=O [Example 60, 1-(piperidin-4-yloxy)-7-(propan-2-yloxy)isoquinoline-6-carboxamide]",7.04
14,"CC(C)Oc1cc2c(OC3CCCNC3)nccc2cc1C(N)=O (stereo not shown) [Example 64, 1-(piperidin-3-yloxy)-7-(propan-2-yloxy)isoquinoline-6-carboxamide hydrochloride]",6.80
15,"CCOc1cc2c(O[C@@H]3CCCNC3)ccnc2cc1C(N)=O [Example 65, (R)-6-ethoxy-4-(piperidin-3-yloxy)quinoline-7-carboxamide hydrochloride]",6.38
